Values joined by “and” are separate entries in the source; they are usually repeats but may differ in a detail not shown here. Equal values may be shown once. Inconclusive results and toxic doses are left out.
Tested on: P1534 leukemia ip, CD2F1 mice, survival T/C
Assay: NCI In Vivo Anticancer Drug Screen. Data for tumor model P1534 Leukemia (intraperitoneal) in CD2F1 (CDF1) mice
Details: endpoint: mean survival time, higher = longer survival
Method: The antitumor activity of compounds was measured in mice bearing transplantable tumors. Survival or tumor size were measured and the results are expressed as the measurement made in the treated group (T) divided by the measurement made in the vehicle treated control group (C). The tumor model used in this assay is P1534 Leukemia (intraperitoneal) in CD2F1 (CDF1) mice

[1] = dose: 0.38 mg/kg/injection, schedule: Q01DX010 (ip), vehicle: saline
[2] = dose: 50.0 mg/kg/injection, schedule: Q01DX010 (ip), vehicle: saline
[3] = dose: 100.0 mg/kg/injection, schedule: Q01DX010 (ip), vehicle: saline
[4] = dose: 200.0 mg/kg/injection, schedule: Q01DX010 (ip), vehicle: saline
[5] = dose: 400.0 mg/kg/injection, schedule: Q01DX010 (ip), vehicle: saline
[6] = dose: 12.5 mg/kg/injection, schedule: Q01DX010 (sc), vehicle: steriod suspending solution
[7] = dose: 25.0 mg/kg/injection, schedule: Q01DX010 (sc), vehicle: steriod suspending solution
[8] = dose: 6.25 mg/kg/injection, schedule: Q01DX010 (ip), vehicle: saline
[9] = dose: 12.5 mg/kg/injection, schedule: Q01DX010 (ip), vehicle: saline
[10] = dose: 25.0 mg/kg/injection, schedule: Q01DX010 (ip), vehicle: saline
[11] = dose: 7.5 mg/kg/injection, schedule: Q01DX010 (ip), vehicle: saline

## CC(=O)OC(C)(C)/C=C/C(=O)[C@](C)(O)[C@H]1[C@H](O)C[C@@]2(C)[C@@H]3CC=C4[C@@H](C[C@H](O)C(=O)C4(C)C)[C@]3(C)C(=O)C[C@]12C
dose: 0.16 mg/kg/injection, schedule: Q01DX010 (ip), vehicle: saline
  T/C: 96 % of control
dose: 0.25 mg/kg/injection, schedule: Q01DX010 (ip), vehicle: saline
  T/C: 100 % of control
[1]
  T/C: 103 % of control

## CC1CCC2C(C)C3C(CC4C5CC=C6CC(OC7OC(CO)C(O)C(OC8OC(CO)C(O)C(O)C8O)C7OC7OC(C)C(O)C(O)C7O)CCC6(C)C5CCC43C)N2C1 (stereo not given)
[2]
  T/C: 96 % of control
[3]
  T/C: 100 % of control
[4]
  T/C: 96 % of control
[5]
  T/C: 92 % of control

## C[C@]12C=CC(=O)C=C1CC[C@@H]1[C@@H]2[C@@H](O)C[C@@]2(C)[C@H]1CC[C@]2(O)C(=O)CO
[6]
  T/C: 103 % of control
[7]
  T/C: 106 % of control and 110 % of control

## CC(=O)NNC(=O)c1ccccn1
dose: 110.0 mg/kg/injection, schedule: Q01DX010 (ip), vehicle: water
  T/C: 100 % of control
dose: 120.0 mg/kg/injection, schedule: Q01DX010 (ip), vehicle: water
  T/C: 107 % of control
dose: 140.0 mg/kg/injection, schedule: Q01DX010 (ip), vehicle: water
  T/C: 98 % of control
dose: 160.0 mg/kg/injection, schedule: Q01DX010 (ip), vehicle: water
  T/C: 112 % of control

## CC[C@@H](c1ccc(O)cc1)[C@@H](CC)c1ccc(O)cc1
dose: 25.0 mg/kg/injection, schedule: Q01DX010 (sc), vehicle: water
  T/C: 100 % of control
dose: 50.0 mg/kg/injection, schedule: Q01DX010 (sc), vehicle: water
  T/C: 92 % of control
dose: 100.0 mg/kg/injection, schedule: Q01DX010 (sc), vehicle: water
  T/C: 92 % of control
dose: 200.0 mg/kg/injection, schedule: Q01DX010 (sc), vehicle: water
  T/C: 92 % of control

## COC(=O)C1=COC(C)C2CN3CCc4c([nH]c5cc(OC)c(OC)cc45)C3CC12 (stereo not given)
[2]
  T/C: 96 % of control
[3]
  T/C: 100 % of control
[4]
  T/C: 100 % of control

## CCC(C)n1ncc2c(N(C)C)ncnc21 (stereo not given)
dose: 16.25 mg/kg/injection, schedule: Q01DX010 (ip), vehicle: saline
  T/C: 107 % of control
dose: 32.5 mg/kg/injection, schedule: Q01DX010 (ip), vehicle: saline
  T/C: 111 % of control
dose: 65.0 mg/kg/injection, schedule: Q01DX010 (ip), vehicle: saline
  T/C: 96 % of control

## CCCCCCCCCCCCNCCCCCCCCCCCC
dose: 5.0 mg/kg/injection, schedule: Q01DX010 (ip), vehicle: other
  T/C: 106 % of control
dose: 10.0 mg/kg/injection, schedule: Q01DX010 (ip), vehicle: other
  T/C: 98 % of control

## O=C(NCCCCC(NC(=O)c1ccccc1)C(=O)NCCCCCCCCCCNC(=O)C(CCCCNC(=O)c1ccccc1)NC(=O)c1ccccc1)c1ccccc1 (stereo not given)
[8]
  T/C: 103 % of control
[9]
  T/C: 103 % of control
[10]
  T/C: 100 % of control
[2]
  T/C: 96 % of control

## CC1CCCCN1 (stereo not given)
[8]
  T/C: 103 % of control
[9]
  T/C: 103 % of control
[10]
  T/C: 103 % of control
[2]
  T/C: 96 % of control

## OC(CBr)C(O)C(O)C(O)CBr (stereo not given)
[9]
  T/C: 103 % of control
[10]
  T/C: 103 % of control
[2]
  T/C: 103 % of control
[3]
  T/C: 103 % of control

## NC(=O)c1ccc(N)nc1
dose: 0.25 mg/kg/injection, schedule: Q#A X020 (ip), vehicle: saline
  T/C: 119 % of control
[1]
  T/C: 120 % of control and 94 % of control
dose: 0.75 mg/kg/injection, schedule: Q01DX010 (ip), vehicle: saline
  T/C: 153 % of control
dose: 1.5 mg/kg/injection, schedule: Q01DX006 (iv), vehicle: saline
  T/C: 114 % of control
dose: 1.5 mg/kg/injection, schedule: Q01DX010 (im), vehicle: saline
  T/C: 121 % of control
dose: 1.5 mg/kg/injection, schedule: Q01DX010 (oral), vehicle: saline
  T/C: 100 % of control
dose: 1.5 mg/kg/injection, schedule: Q01DX010 (sc), vehicle: saline
  T/C: 121 % of control
dose: 1.5 mg/kg/injection, schedule: Q03DX Z (ip), vehicle: saline
  T/C: 119 % of control
dose: 2.0 mg/kg/injection, schedule: Q#A X020 (ip), vehicle: saline
  T/C: 100 % of control
dose: 3.0 mg/kg/injection, schedule: Q01DX006 (iv), vehicle: saline
  T/C: 114 % of control
dose: 3.0 mg/kg/injection, schedule: Q01DX010 (im), vehicle: saline
  T/C: 121 % of control
dose: 3.0 mg/kg/injection, schedule: Q01DX010 (ip), vehicle: saline
  T/C: 158 % of control
dose: 3.0 mg/kg/injection, schedule: Q01DX010 (oral), vehicle: saline
  T/C: 123 % of control
dose: 3.5 mg/kg/injection, schedule: Q01DX001 (ip), vehicle: saline
  T/C: 115 % of control
dose: 3.5 mg/kg/injection, schedule: Q07DX Z (ip), vehicle: saline
  T/C: 115 % of control
dose: 6.0 mg/kg/injection, schedule: Q01DX010 (im), vehicle: saline
  T/C: 121 % of control
dose: 6.0 mg/kg/injection, schedule: Q01DX010 (ip), vehicle: saline
  T/C: 88 % of control
dose: 7.0 mg/kg/injection, schedule: Q01DX001 (ip), vehicle: saline
  T/C: 115 % of control
dose: 12.0 mg/kg/injection, schedule: Q03DX Z (ip), vehicle: saline
  T/C: 119 % of control
dose: 14.0 mg/kg/injection, schedule: Q01DX001 (ip), vehicle: saline
  T/C: 117 % of control and 119 % of control
dose: 14.0 mg/kg/injection, schedule: Q07DX Z (ip), vehicle: saline
  T/C: 117 % of control and 119 % of control
dose: 28.0 mg/kg/injection, schedule: Q01DX001 (ip), vehicle: saline
  T/C: 88 % of control
dose: 112.0 mg/kg/injection, schedule: Q01DX001 (ip), vehicle: saline
  T/C: 121 % of control

## C[C@]12C[C@H](O)[C@H]3[C@@H](CCC4=CC(=O)CC[C@@]43C)[C@@H]1CC[C@@H]2C(=O)CO
[6]
  T/C: 107 % of control
[7]
  T/C: 107 % of control
dose: 50.0 mg/kg/injection, schedule: Q01DX010 (sc), vehicle: steriod suspending solution
  T/C: 107 % of control
dose: 100.0 mg/kg/injection, schedule: Q01DX010 (sc), vehicle: steriod suspending solution
  T/C: 107 % of control

## Cc1cc(O)c2cc3c(O)c(O)ccc3cc2c1
dose: 1.0 mg/kg/injection, schedule: Q01DX010 (ip), vehicle: saline
  T/C: 100 % of control
dose: 2.0 mg/kg/injection, schedule: Q01DX010 (ip), vehicle: saline
  T/C: 103 % of control

## CC(=O)O[C@H]1C(=O)[C@@]2(C)[C@H]([C@H](OC(=O)c3ccccc3)[C@]3(O)C[C@H](OC(=O)[C@H](O)[C@@H](NC(=O)c4ccccc4)c4ccccc4)C(C)=C1C3(C)C)[C@]1(OC(C)=O)CO[C@@H]1C[C@@H]2O
dose: 1.88 mg/kg/injection, schedule: Q01DX010 (ip), vehicle: saline
  T/C: 300 % of control
dose: 3.75 mg/kg/injection, schedule: Q01DX010 (ip), vehicle: saline
  T/C: 300 % of control
[11]
  T/C: 250 % of control
dose: 15.0 mg/kg/injection, schedule: Q01DX010 (ip), vehicle: saline
  T/C: 89 % of control

## Cc1cc(N(CCCl)CCCl)ccc1C=Nc1ccccc1-c1ccccc1
[10]
  T/C: 100 % of control
[2]
  T/C: 100 % of control
[3]
  T/C: 100 % of control

## CCC1=CC2CN3CCc4c([nH]c5ccccc45)C(C(=O)OC)(C2)C13 (stereo not given)
dose: 2.5 mg/kg/injection, schedule: Q01DX010 (ip), vehicle: saline
  T/C: 117 % of control
dose: 5.0 mg/kg/injection, schedule: Q01DX010 (ip), vehicle: saline
  T/C: 103 % of control
dose: 10.0 mg/kg/injection, schedule: Q01DX010 (ip), vehicle: saline
  T/C: 100 % of control
dose: 20.0 mg/kg/injection, schedule: Q01DX010 (ip), vehicle: saline
  T/C: 92 % of control

## SCc1ccccn1
[10]
  T/C: 107 % of control
[2]
  T/C: 100 % of control
[3]
  T/C: 115 % of control
[4]
  T/C: 115 % of control

## CN(C)CC(=O)NCCCCCCCCCCNC(=O)CN(C)C
[3]
  T/C: 100 % of control
[4]
  T/C: 100 % of control
[5]
  T/C: 107 % of control

## COc1cc2c(c3c1c(=O)c1ccccc1n3C)C=CC(C)(C)O2
dose: 6.25 mg/kg/injection, schedule: Q01DX010 (ip), vehicle: other
  T/C: 108 % of control
dose: 12.5 mg/kg/injection, schedule: Q01DX010 (ip), vehicle: other
  T/C: 108 % of control
dose: 25.0 mg/kg/injection, schedule: Q01DX010 (ip), vehicle: other
  T/C: 116 % of control
dose: 50.0 mg/kg/injection, schedule: Q01DX010 (ip), vehicle: other
  T/C: 91 % of control
dose: 100.0 mg/kg/injection, schedule: Q01DX010 (ip), vehicle: other
  T/C: 116 % of control

## Nc1nncs1
[11]
  T/C: 114 % of control

Reference: PubChem BioAssay AID316 (DTP/NCI, 2004)
